From a melting point compilation (Tetko et al.)

SMILES | melting point
CC12Cc3nonc3CC1CCC1C2CCC2(C)C1CCC2(C)O (stereo not drawn) | 152 °C
CN(C)P(=O)(OP(=O)(N(C)C)N(C)C)N(C)C | 17 °C
Nc1cc(-c2ccccc2)nn1-c1ccccc1 | 131 °C
Nc1ccc(N=O)c(N)n1 | 260 to 266 °C
N#Cc1ccc([N+](=O)[O-])cc1C#N | 140 to 144 °C
CC1(C)C(=O)N(Br)C(=O)N1Cl | 164 °C
Clc1cc(Cl)nc(Cc2ccccc2)n1 | 56 to 57 °C
O=C(O)C1CCN(c2nccc(C(F)(F)F)n2)CC1 | 140 to 142 °C
C#CCN1CCS(=O)(=O)CC1 | 114 to 116 °C
CC(=O)OC1CCC2(C)C(C1)CC1(OCCO1)C1C3CCC(=O)C3(C)CCC12 (stereo not drawn) | 240 °C
Ic1ccccc1Cn1cncn1 | 67 to 69 °C
N#Cc1c(-c2ccccc2)nn(-c2ccccc2)c1N | 161 °C
Nc1nsc(-c2ccccc2)n1 | 136 to 138 °C
OCc1ccccc1COc1ccccc1 | 50 to 51 °C
CC(C)C12CCC(C)(O1)C(=O)OC2=O (stereo not drawn) | 109 °C
CC1(C)CC2(CC(C)(C)c3cc(O)c(O)cc32)c2cc(O)c(O)cc21 | 300 °C
CCOC(=O)c1c(N)sc(C)c1C | 90 to 91 °C
NN1C(=O)CSC1=S | 102 °C
CC1(C)C2CC[C@]1(CS(=O)(=O)O)C(=O)C2 | 200 °C
CNCc1c(C)nc2ccccn12 | 73 to 75 °C
Brc1cc(Br)c(Br)c(Br)c1 | 99.5 °C

SMILES | melting point
Nc1n[nH]c(-c2ccccc2)c1Br | 118 to 120 °C
CC(C)(C)C1=CC(=NO)C=C(C(C)(C)C)C1=O | 219 °C
CC(C)(OC1CCCCC1)C(=O)O | 75 °C
O=C1OC(=O)C2C3C=CC(C12)C1C(=O)OC(=O)C31 (stereo not drawn) | 360 °C
COc1c2ccoc2cc2oc(COC3OC(CO)C(O)C(O)C3O)cc(=O)c12 (stereo not drawn) | 179 °C
CC(C)c1cc(C(C)C)c(S(=O)(=O)Cl)c(C(C)C)c1 | 96 °C
COc1cc2c(cc1C)C(Cl)C2 (stereo not drawn) | 41 °C
CCCCCCCCCBr | -29 °C
CCCCCCCCCCCCCCOCCOCCOCCOCCOCCOCCO | 32.5 °C
COc1ccccc1C(=S)N1CCOCC1 | 86 °C
O=C1/C(=C/c2ccc([N+](=O)[O-])cc2)SC(=S)N1CN(CCCl)CCCl | 284 °C
CSc1nc2ccccc2c(=O)[nH]1 | 223 to 225 °C
CC(C)(C)OC(=O)N1CCC(O)CC1 | 63 °C
O=Cc1ccc(N2CCCCC2)nc1 | 43 °C
CC/C=C/CCCC | -110 °C
Clc1cc2oc3c(Cl)c(Cl)ccc3c2cc1Cl | 195 °C
CCCCCCCC(=O)Oc1c(Br)cc(C#N)cc1Br | 45.5 °C
O=C(CCl)NCO | 100 °C
N#Cc1nc[nH]c1C(N)=O | 276 to 278 °C
N[C@@H](CCCCNC(=O)OCc1ccccc1)C(=O)O | 259 °C
CCC(C)(O)C(C)(C)C (stereo not drawn) | -6 °C

SMILES | melting point
Clc1c(Cl)c(Cl)c2c(c1Cl)Oc1ccccc1O2 | 188 °C
CC(C)=CCCC(C)=CCO | 50 °C
Nc1cc(C(F)(F)F)ccc1[N+](=O)[O-] | 100 °C
O=C(O)C12CC3CC(C1)CC(C(F)(F)C(F)C(F)(F)F)(C3)C2 (stereo not drawn) | 115 to 117 °C
FC(F)(F)c1ccnc(S)n1 | 161 to 166 °C
CNCCCC12CCC(c3ccccc31)c1ccccc12 | 92 °C
O=S(=O)(N(c1ccccn1)S(=O)(=O)C(F)(F)F)C(F)(F)F | 39 °C
CCC12CC3CC(C1)CC(C(=O)O)(C3)C2 | 94 to 96 °C
C#CC(O)CCCCC (stereo not drawn) | -60 °C
COc1ccc(Cl)c([N+](=O)[O-])c1 | 44 °C
CCOC(=O)c1c(SC)n[nH]c1N | 142 to 143 °C
CC(C)CNC(=O)N1CCNC1=O | 95.5 °C
CC(C)(O)C#CC(C)(C)O | 95 °C
CCNc1nc(NC(C)(C)C)nc(OC)n1 | 124 °C
Cc1cc(C(=O)O)c(C(F)(F)F)o1 | 124 to 126 °C
CCOC(=O)CC(=O)CCl | -8 °C
Oc1ccc(Cl)c(C(F)(F)F)c1 | 44 °C
O=C(NCc1ccccn1)c1cc([N+](=O)[O-])cc([N+](=O)[O-])c1 | 120 °C
Nc1cc(C(F)(F)F)cc(Br)c1N | 60 to 62 °C
COc1cc(N)cc(OC)c1 | 55 °C
Nc1cccc(-c2cccnc2)c1 | 74 to 78 °C

SMILES | melting point
CC1OC(=O)C(C)OC1=O (racemic) | 124 °C
Ic1cc(I)cc(I)c1 | 184 °C
Nc1c(Cl)cc(C(=O)O)cc1Cl | 292 °C
CC(C)CCCCCCCOC(=O)c1ccccc1C(=O)OCCCCCCCC(C)C | -45.6 °C
COC1=C(O)C(=O)C(C)=C(O)C1=O | 202 °C
CCOC(=O)Cn1cc(Cl)c(=O)c(Cl)c1 | 209 to 211 °C
CC=CC=CC | -79 °C
O=C(C=Cc1ccc(-c2cccc([N+](=O)[O-])c2)o1)c1ccccc1 | 146 to 147 °C
NCCOc1ccccc1Cl | 40 °C
O=C(Oc1c(F)c(F)c(F)c(F)c1F)Oc1c(F)c(F)c(F)c(F)c1F | 48 to 51 °C
OCc1ccccc1O[C@@H]1O[C@H](CO)[C@@H](O)[C@H](O)[C@H]1O | 198 to 200 °C
N#Cc1ccc(-c2nccs2)cc1 | 102 to 103 °C
CCCCCCCCCCCCOc1ccc(C(C)=O)cc1OCCCCCCCCCCCC | 62 to 67 °C
O=[N+]([O-])c1ccc2c(c1)=[N+]([O-])C1(CCCC1)[N+]=2[O-] | 148 to 150 °C
CCSC(SCC)C(O)C(O)C(O)CO (stereo not drawn) | 127 °C
O=Cc1ccc(OCc2ccccc2F)cc1 | 54 to 57 °C
O=C(Cc1ccccc1)OCc1ccccc1[N+](=O)[O-] | 54 °C
O=P1(N(CCCl)CCCl)NCCCO1 (stereo not drawn) | 51.5 °C
O=C(O)c1ccc2c(c1)OCCOCCOCCOCCOCCO2 | 121 to 126 °C

The next lines start with the values.

melting point | SMILES
168 °C | O=Nc1ccc(O)c(N=O)c1O
73 to 76 °C | Cc1nc(-c2ccc(CBr)cc2)cs1
187 to 188 °C | Cc1ccccc1C(=O)Cc1ccc(C(N)=O)cc1
226 to 227 °C | CC(C)(C)OC(=O)N1CCC2(CC1)NC(=O)c1cc(Br)ccc1O2
216 to 218 °C | Nc1nc(-c2ccc(Br)cc2)cc(C(F)(F)F)n1
27 °C | O=S(=O)(Cl)c1ccccc1Cl
124 to 126 °C | COC(=O)c1cc(C)n(CN(Cn2nc(C(=O)OC)cc2C)c2ccccc2)n1
140 °C | CC(C)(O)CCSc1ccc(S(N)(=O)=O)cc1
178 °C | COc1cc(C(=O)O)cc(OCc2ccccc2)c1OC
77 to 79 °C | CCOC(=O)C(Br)C(Br)c1ccccc1 (stereo not drawn)
-18 °C | CC(C)=C1OC(=O)C1(C)C
169 °C | O=C(CNc1cccc([N+](=O)[O-])c1)c1ccccc1
132 °C | CC(=O)C(=NNc1ccc(Br)cc1)C(C)=O
100 to 104 °C | COc1ccc2ccccc2c1CO
189 °C | COc1ccc(C=NNC(=O)c2ccncc2)cc1OC
102 °C | CCCCC(C(N)=O)n1nc2ccccc2n1 (stereo not drawn)
-19.8 °C | CCCCc1cccc2ccccc12
78.5 °C | COc1cc(Br)cc(OC)c1OC
219 °C | CC(=Nc1c(O)ccc2ccccc12)c1c(O)c2ccccc2n(-c2ccccc2)c1=O
174 to 176 °C | CS(=O)(=O)c1ccc2ccn(O)c2c1
50.5 °C | CC(C)(C(=O)c1cccnc1)c1cccnc1
144 °C | COc1cc(OC)cc(C(N)=O)c1
83 °C | O=C(NC(CO)C(=O)OCc1ccccc1)OCc1ccccc1 (stereo not drawn)
194 °C | O=C(NCc1ccccc1)C(C(F)(F)F)C(F)(F)F
191 °C | COc1cc(/C=C/c2ccc([N+](=O)[O-])cc2[N+](=O)[O-])ccc1O
197 °C | O=C(O)c1cc2cc(OCc3ccccc3)ccc2[nH]1

melting point | SMILES
71.5 to 72.5 °C | Oc1ccc(Br)c(F)c1
246 to 248 °C | O=C1Nc2ccccc2CCc2ccccc21
39 °C | CCOC(=O)c1ccc(OC)cn1
156 °C | CC12CCC(C(C(O)c3ccccc3)OC1=O)C2(C)C (stereo not drawn)
36 °C | Oc1cccc(F)c1F
106 to 110 °C | CSC(=CC(=C(C#N)C#N)c1ccc(Cl)cc1)SC
-3 °C | CC(=O)c1ccc(C)c(C)c1
190 to 192 °C | O=c1ccc2cc([N+](=O)[O-])ccc2o1
187 °C | Nc1ccc(S(=O)(=O)Nc2ccc(Cl)nn2)cc1
94 °C | CC1(O)Cc2cccc(Cl)c21 (stereo not drawn)
73 °C | NNC(=O)c1ccccc1F
147 °C | O=C(Oc1ccccc1C(=O)O)c1ccccc1O
137 to 138 °C | CC1(C)OC(C)(C(O)(Cc2ccccc2)Cc2ccccc2)CCC1C(=O)O (stereo not drawn)
135 to 136 °C | COC(=O)c1cccc2c1-c1ccccc1C2=O
124 to 129 °C | CCOC(=O)C=P(c1ccccc1)(c1ccccc1)c1ccccc1
-14.5 °C | Cc1cccc(C(C)C)c1O
75 °C | O=C(O)C(=CN(O)c1ccccc1)c1ccccc1
-34 °C | C=Cc1ccc(C)cc1
-20 °C | Clc1ccc(Br)s1
244 °C | COC(=O)c1cc(O)nc(O)n1
165 to 168 °C | Cc1c(S(=O)(=O)c2ccc(Cl)cc2)csc1C(=O)NN
94 °C | O=C(CCCl)NCc1ccccc1
89 °C | O=C(O)c1cccc(OC(F)(F)F)c1
113 °C | O=C1C[C@@H](C(=O)O)c2ccccc21
305 °C | Cc1nc(-c2ccncc2)sc1C(=O)O
